The text below walks through data of ChEMBL document CHEMBL1132553, “Design, synthesis, and biological evaluation of matrix metalloproteinase inhibitors derived from a modified proline scaffold” (J Med Chem, 1999).

The structures appear in SMILES notation.

One data set deals with T1, Interstitial collagenase (Homo sapiens, UniProt P03956).
T1 sequence (P03956 whole entry): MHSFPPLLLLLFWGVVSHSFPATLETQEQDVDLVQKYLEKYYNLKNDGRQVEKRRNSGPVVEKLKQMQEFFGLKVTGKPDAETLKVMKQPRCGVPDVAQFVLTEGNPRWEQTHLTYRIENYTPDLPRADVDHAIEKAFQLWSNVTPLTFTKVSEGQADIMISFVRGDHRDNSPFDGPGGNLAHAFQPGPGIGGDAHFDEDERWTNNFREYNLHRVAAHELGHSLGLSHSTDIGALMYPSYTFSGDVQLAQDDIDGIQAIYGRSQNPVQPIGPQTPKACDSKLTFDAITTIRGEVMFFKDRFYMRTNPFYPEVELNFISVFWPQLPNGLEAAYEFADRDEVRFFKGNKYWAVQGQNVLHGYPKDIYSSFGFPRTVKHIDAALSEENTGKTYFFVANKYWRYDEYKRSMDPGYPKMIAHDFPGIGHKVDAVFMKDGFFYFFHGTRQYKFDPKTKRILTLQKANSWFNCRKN
Kind of data set: In vitro inhibition of human recombinant collagenase-1 (Matrix metalloprotease-1, MMP-1).

The target in another data set is Stromelysin-1 (Homo sapiens, UniProt P08254). Kind of data set: In vitro inhibition activity of human recombinant stromelysin (Matrix metalloprotease-3).
In the next data set the target is T2, Matrilysin (Homo sapiens, UniProt P09237).
T2 sequence (P09237 whole entry): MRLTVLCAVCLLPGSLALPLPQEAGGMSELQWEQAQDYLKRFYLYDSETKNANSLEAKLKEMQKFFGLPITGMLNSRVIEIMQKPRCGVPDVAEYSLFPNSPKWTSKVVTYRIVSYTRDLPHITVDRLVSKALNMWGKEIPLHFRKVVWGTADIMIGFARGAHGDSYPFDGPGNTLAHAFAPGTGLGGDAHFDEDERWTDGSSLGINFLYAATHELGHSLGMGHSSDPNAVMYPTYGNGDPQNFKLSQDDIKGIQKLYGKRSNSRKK
The data set can be described thus: In vitro inhibition of matrilysin (Matrix metalloprotease-7, MMP-7).

The target of data set [1] is 72 kDa type IV collagenase (Homo sapiens, UniProt P08253).
Description: In vitro inhibitory activity against gelatinase-A (matrix metalloprotease-2).
The target of the next data set is Collagenase 3 (Homo sapiens, UniProt P45452). Kind of data set: In vitro inhibition of human recombinant collagenase-3 (Matrix metalloprotease-13).
A further data set is filed under the species Rattus norvegicus. The data set can be described thus: In vitro percent permeability into rat ileum; Range is 78-81. The format is ADME. Particulars: in vivo.

Sequence of 72 kDa type IV collagenase (P08253 whole entry): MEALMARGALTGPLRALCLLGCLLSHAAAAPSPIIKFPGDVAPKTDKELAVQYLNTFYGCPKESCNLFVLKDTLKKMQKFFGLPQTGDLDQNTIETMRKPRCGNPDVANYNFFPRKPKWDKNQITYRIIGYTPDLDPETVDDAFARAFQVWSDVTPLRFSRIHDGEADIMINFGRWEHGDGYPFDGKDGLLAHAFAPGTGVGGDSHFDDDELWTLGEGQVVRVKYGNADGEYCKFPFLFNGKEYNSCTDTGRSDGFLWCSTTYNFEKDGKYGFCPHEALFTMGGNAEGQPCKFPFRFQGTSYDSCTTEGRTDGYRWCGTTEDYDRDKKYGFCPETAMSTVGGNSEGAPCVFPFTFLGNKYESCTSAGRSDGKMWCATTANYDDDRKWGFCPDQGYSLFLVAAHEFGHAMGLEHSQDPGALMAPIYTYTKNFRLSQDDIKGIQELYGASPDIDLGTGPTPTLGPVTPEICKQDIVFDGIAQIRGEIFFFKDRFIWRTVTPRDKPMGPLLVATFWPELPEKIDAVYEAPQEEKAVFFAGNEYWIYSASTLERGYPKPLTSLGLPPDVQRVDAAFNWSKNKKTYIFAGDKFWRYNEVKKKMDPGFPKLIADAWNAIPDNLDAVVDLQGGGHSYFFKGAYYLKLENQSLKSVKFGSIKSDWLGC
Sequence of Stromelysin-1 (P08254 whole entry): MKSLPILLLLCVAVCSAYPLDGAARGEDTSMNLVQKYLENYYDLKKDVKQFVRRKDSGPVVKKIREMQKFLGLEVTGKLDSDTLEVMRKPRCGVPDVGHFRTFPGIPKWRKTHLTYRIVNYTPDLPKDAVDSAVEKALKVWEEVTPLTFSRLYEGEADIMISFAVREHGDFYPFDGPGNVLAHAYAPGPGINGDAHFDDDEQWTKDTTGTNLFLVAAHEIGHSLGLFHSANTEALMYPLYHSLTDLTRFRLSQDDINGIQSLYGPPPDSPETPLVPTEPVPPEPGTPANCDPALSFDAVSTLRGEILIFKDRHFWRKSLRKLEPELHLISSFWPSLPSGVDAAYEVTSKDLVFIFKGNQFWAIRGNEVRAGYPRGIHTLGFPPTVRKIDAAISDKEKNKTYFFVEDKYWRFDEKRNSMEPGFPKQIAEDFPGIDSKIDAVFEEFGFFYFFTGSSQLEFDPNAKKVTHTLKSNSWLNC

As to `CO/N=C1/C[C@H](C(=O)NO)N(S(=O)(=O)c2ccc(OC)cc2)C1`, the concentration for half-maximal inhibition (IC50) on Interstitial collagenase was 10 nM; at Stromelysin-1, 3 nM; against Matrilysin, 82 nM; in data set [1] it was less than 1 nM; on Collagenase 3, less than 0.5 nM. The compound also registered an Absorption in the data set filed under Rattus norvegicus of 81%.
